Experimental data from patent US5821240A, “Pyrimido[5,4]-dipyrimidines, pharmaceuticals containing them, their use and processes for the preparation thereof” (Dr. Karl Thomae GmbH, priority 1996, dated 1998).

Key:
[1] = tested on: F/L-HERc cells expressing human EGF-R; assay: Inhibition of EGF-dependent proliferation of F/L-HERc cells; assay type: cell-based, murine cell line; human EGF-R; conditions: EGF 20 ng/ml, 37° C., 48 hours
From the text: (§1) In this case, an interleukin-3 (IL-3)-dependent cell line of murine origin was used and was genetically modified in such a way that it expresses functional human EGF-R. Proliferation of these cells, which are called F/L-HERc, can therefore be stimulated either by murine IL-3 or by EGF (see von Ruden, T. et al. in EMBO J. 7, 2749-2756 (1988) and Pierce, J. H. et al. in Science 239, […] (1988)).
(§2) The starting material for the F/L-HERc cells was the cell line FDC-P1 whose preparation has been described by Dexter, T. M. et al. in J. Exp. Med. 152, 1036-1047 (1980). However, it is also possible as an alternative to use other growth factor-dependent cells (see, for example, Pierce, J. H. et al. in Science 239, 628-631 (1988), Shibuya, H. et al. in Cell 70, 57-67 (1992) and Alexander, W. S. et al. in EMBO J. 10, 3683-3691 (1991)). Recombinant retroviruses as described in von Ruden, T. et al., EMBO J. 7, 2749-2756 (1988) Were used for expression of the human EGF-R cDNA (see Ullrich, A. et al. in Nature 309, 418-425 (1984)), with the difference that the retroviral vector LXSN (see Miller, A. D. et al. in BioTechniques 7, 980-990 (1989)) was employed for expression of the EGF-R cDNA, and the line GP+E86 (see Markowitz, D. et al. in J. Virol. 62, 1120-1124 (1988)) was used as packaging cell.
(§3) F/L-HERc cells were cultivated in RPMI/1640 medium (BioWhittaker), supplemented with 10% fetal calf serum (FCS, Boehringer Mannheim), 2 mM glutamine (BioWhittaker), standard antibiotics and 20 ng/ml human EGF (Promega), at 37° C. and 5% CO2. To investigate the inhibitor activity of the compounds according to the invention, 1.5×10^4 cells were cultivated in the above medium (200 μl) per well in triplicates in 96-well plates, stimulating proliferation of the cells either with EGF (20 ng/ml) or with murine IL-3. The source used for IL-3 was culture supernatants from the cell line X63/0 mIL-3 (see Karasuyama, H. et al. in Eur. J. Immunol. 18, 97-104 (1988)). The compounds according to the invention were dissolved in 100% dimethyl sulphoxide (DMSO) and added in various dilutions to the cultures, with the maximum DMSO concentration being 1%. The cultures were incubated at 37° C. for 48 hours.
(§4) To determine the inhibitory activity of the compounds according to the invention, the relative cell count was measured in O.D. units using the Cell Titre 96™ AQueous Non-Radioactive Cell Proliferation Assay (Promega). The relative cell count was calculated as a percent of the control (F/L-HERc cells without inhibitor), and the concentration of active substance which inhibits the proliferation of the cells by 50% (IC50) was inferred.

F/L-HERc cells = assay: Inhibition of IL-3-dependent proliferation of F/L-HERc cells; assay type: cell-based; conditions: Mus musculus, murine IL-3, 37° C., 48 hours
From the text: as §1, §2, §3, §4

Compound	IC50 [1]	IC50 (F/L-HERc cells)
NCCCCCNc1ncc2ncnc(Nc3ccc(F)c(Cl)c3)c2n1 [1(54), 4-[(3-Chloro-4-fluorophenyl)amino]-6-[5-aminopentylamino]pyrimido[5,4-d]pyrimidine]	10 nM	> 1000 nM
NC[C@H]1CC[C@H](Nc2ncc3ncnc(Nc4ccc(F)c(Cl)c4)c3n2)CC1 [1(59)]	1 nM	> 1000 nM
Nc1cc(Cl)c(Nc2ncnc3cnc(N[C@H]4CC[C@H](O)CC4)nc23)cc1Cl [1(62), 4-[(4-Amino-2,5-dichlorophenyl)amino]-6-[trans-4-hydroxycyclohexylamino]pyrimido[5,4-d]pyrimidine]	4 nM	> 10000 nM
COC(=O)[C@H]1CC[C@H](Nc2ncc3ncnc(Nc4ccc(F)c(Cl)c4)c3n2)CC1 [Example 1, 4-[(3-Chloro-4-fluorophenyl)amino]-6-[(trans-4-methoxycarbonylcyclohexyl)amino]pyrimido[5,4-d]pyrimidine]	200 nM	> 10000 nM
OC1CCN(c2ncc3ncnc(Nc4ccc(F)c(Cl)c4)c3n2)CC1 [1(48), 4-[(3-Chloro-4-fluorophenyl)amino]-6-[4-hydroxy-1-piperidinyl]pyrimido[5,4-d]pyrimidine]	36 nM	> 1000 nM
NCCCCNc1ncc2ncnc(Nc3ccc(F)c(Cl)c3)c2n1 [1(10), 4-[(3-Chloro-4-fluorophenyl)amino]-6-[4-aminobutylamino]pyrimido[5,4-d]pyrimidine]	17 nM	> 10000 nM
O[C@H]1CC[C@H](Nc2ncc3ncnc(Nc4ccc(-c5ccccc5)cc4)c3n2)CC1 [1(63), 4-[4-Biphenylylamino]-6-[trans-4-hydroxycyclohexylamino]pyrimido[5,4-d]pyrimidine]	> 10000 nM	> 10000 nM
CC(C)(N)CNc1ncc2ncnc(Nc3ccc(F)c(Cl)c3)c2n1 [1(27), 4-[(3-Chloro-4-fluorophenyl)amino]-6-[2-amino-2-methyl-1-propylamino]pyrimido[5,4-d]pyrimidine]	40 nM	> 10000 nM
Fc1ccc(Nc2ncnc3cnc(NCC45CCN(CC4)CC5)nc23)cc1Cl [1(24), 4-[(3-Chloro-4-fluorophenyl)amino]-6-[4-quinuclidinylmethylamino]pyrimido[5,4-d]pyrimidine]	9 nM	> 1000 nM
Fc1ccc(Nc2ncnc3cnc(NC4CCCNCC4)nc23)cc1Cl (centres unmarked) [1(58), 4-[(3-Chloro-4-fluorophenyl)amino]-6-[4-(azacycloheptyl)amino]pyrimido[5,4-d]pyrimidine]	4 nM	> 1000 nM
O=CNC1CCN(c2ncc3ncnc(Nc4ccc(F)c(Cl)c4)c3n2)CC1 [1(5), 4-[(3-Chloro-4-fluorophenyl)amino]-6-[4-formylamino-1-piperidinyl]pyrimido[5,4-d]pyrimidine]	21 nM	> 10000 nM
CC(C)(C)OC(=O)N1CCC(CNc2ncc3ncnc(Nc4ccc(F)c(Cl)c4)c3n2)CC1 [1(26), 4-[(3-Chloro-4-fluorophenyl)amino]-6-[(1-tert-butyloxycarbonyl-4-piperidinyl)methylamino]pyrimido[5,4-d]pyrimidine]	200 nM	> 20000 nM
CCN(CCO)c1ncc2ncnc(Nc3ccc(F)c(Cl)c3)c2n1 [1(23), 4-[(3-Chloro-4-fluorophenyl)amino]-6-[N-ethyl-N-(2-hydroxyethyl)amino]pyrimido[5,4-d]pyrimidine]	63 nM	> 1000 nM
O=C(N[C@H]1CC[C@H](CNc2ncc3ncnc(Nc4ccc(F)c(Cl)c4)c3n2)CC1)OCc1ccccc1 [1(60), 4-[(3-Chloro-4-fluorophenyl)amino]-6-[trans-4-(benzyloxycarbonylamino)cyclohexylmethylamino]pyrimido[5,4-d]pyrimidine]	120 nM	> 10000 nM
Fc1ccc(Nc2ncnc3cnc(N4CCCNCC4)nc23)cc1Cl [1(13), 4-[(3-Chloro-4-fluorophenyl)amino]-6-[1-homopiperazinyl]-pyrimido[5,4-d]pyrimidine]	150 nM	> 10000 nM
O[C@H]1CC[C@H](Nc2ncc3ncnc(Nc4cccc(Oc5ccccc5)c4)c3n2)CC1 [1(64)]	150 nM	> 10000 nM
Nc1ncc2ncnc(Nc3ccc(F)c(Cl)c3)c2n1 [1(53), 4-[(3-Chloro-4-fluorophenyl)amino]-6-aminopyrimido-[5,4-d]pyrimidine]	> 100 nM	> 1000 nM
CN1CCCN(c2ncc3ncnc(Nc4ccc(F)c(Cl)c4)c3n2)CC1 [1(12), 4-[(3-Chloro-4-fluorophenyl)amino]-6-[4-methyl-1-homopiperazinyl]pyrimido[5,4-d]pyrimidine]	375 nM	> 10000 nM
COc1ccccc1N1CCN(c2ncc3ncnc(Nc4ccc(F)c(Cl)c4)c3n2)CC1 [1(33), 4-[(3-Chloro-4-fluorophenyl)amino]-6-[4-(2-methoxyphenyl)-1-piperazinyl]pyrimido[5,4-d]pyrimidine]	> 1000 nM	> 20000 nM
Fc1ccc(Nc2ncnc3cnc(N4CCC(N5CCCC5)CC4)nc23)cc1Cl [1(31), 4-[(3-Chloro-4-fluorophenyl)amino]-6-[4-(1-pyrrolidinyl)-1-piperidinyl]pyrimido[5,4-d]pyrimidine]	103 nM	10000 nM
N#CN1CCC(Nc2ncc3ncnc(Nc4ccc(F)c(Cl)c4)c3n2)CC1 [1(50), 4-[(3-Chloro-4-fluorophenyl)amino]-6-[(1-cyano-4-piperidinyl)amino]pyrimido[5,4-d]pyrimidine]	3 nM	> 1000 nM
Fc1ccc(Nc2ncnc3cnc(NCC4CCNCC4)nc23)cc1Cl [1(29), 4-[(3-Chloro-4-fluorophenyl)amino]-6-[4-piperidinylmethylamino]pyrimido[5,4-d]pyrimidine]	13 nM	> 20000 nM
Fc1ccc(Nc2ncnc3cnc(N4CCCCCC4)nc23)cc1Cl [1(55), 4-[(3-Chloro-4-fluorophenyl)amino]-6-[1-azacycloheptyl]pyrimido[5,4-d]pyrimidine]	40 nM	> 1000 nM
Fc1ccc(Nc2ncnc3cnc(N4CCCCC4)nc23)cc1Cl [1(49), 4-[(3-chloro-4-fluorohenyl)amino]-6-[1-piperidinyl]pyrimido[5,4-d]pyrimidine]	> 1000 nM	> 1000 nM
Nc1c(Br)cc(Nc2ncnc3cnc(N4CCC(N)CC4)nc23)cc1Br [1(3), 4-[(4-Amino-3,5-dibromophenyl)amino]-6-[4-amino-1-piperidinyl]pyrimido[5,4-d]pyrimidine]	67 nM	> 1000 nM
CC(C)(C)OC(=O)N1CCN(CCNc2ncc3ncnc(Nc4ccc(F)c(Cl)c4)c3n2)CC1 [1(35), 4-[(3-Chloro-4-fluorophenyl)amino]-6-[2-(4-tert-butyloxycarbonyl-1-piperazinyl)ethylamino]pyrimido[5,4-d]pyrimidine]	240 nM	> 1000 nM
COc1cccc(N2CCN(c3ncc4ncnc(Nc5ccc(F)c(Cl)c5)c4n3)CC2)c1 [1(32), 4-[(3-Chloro-4-fluorophenyl)amino]-6-[4-(3-methoxyphenyl)-1-piperazinyl]pyrimido[5,4-d]pyrimidine]	> 1000 nM	> 20000 nM
CN1CCC(CNc2ncc3ncnc(Nc4ccc(F)c(Cl)c4)c3n2)CC1 [1(51), 4-[(3-Chloro-4-fluorophenyl)amino]-6-[(1-methyl-4-piperidinyl)methylamino]pyrimido[5,4-d]pyrimidine]	9 nM	> 1000 nM
